Patent US12594292B2, “Antiviral prodrugs, intermediate-and long-acting formulations and methods” (priority 2022, dated 2026)

Key:
[1] = system: SARS-CoV-2 isolate USA-WA1/2020; assay: SARS-CoV-2 infection in Huh7.5 cells, qRT-PCR (Example 7); format: cell-based
[2] = system: Huh7.5 cells; assay: Cytotoxicity in Huh7.5 cells, nuclei count (Example 6); format: cell-based, human
[3] = system: SARS-CoV-2; assay: SARS-CoV-2 infection assay in Huh7.5 cells, nucleocapsid immunofluorescence (Example 6); format: cell-based; conditions: MOI 0.1, 48 hours
[4] = system: Calu-3 cells; assay: Cell viability assay CellTiter-Glo, Calu-3 cells (Example 7); conditions: Calu-3 cells, CellTiter-Glo
[5] = system: USA WA-01 strain of SARS CoV-2; assay: Anti-coronavirus activity in Vero E6 cells, qPCR of spike RNA (Example 2); format: cell-based
Description: (§1) Ten thousand Vero E6 cells were seeded in 100 microliters of culture medium in 96 well plates. The following day serial two-fold dilutions of antiviral compounds or the DMSO-containing vehicle were added to each well. The USA WA-01 strain of SARS CoV-2 was added to each well at a multiplicity of infection of 0.1 thirty minutes later. Cells were incubated for 48 hours, washed twice in PBS and lysed with TRIzol. RNA was extracted using Directzol micro RNA columns. RNA was made into cDNA and assayed for the SARS CoV-2 spike protein and for a housekeeping gene (RPLPO) RNA by qPCR. Data represents the average of duplicate wells. Cellular cytotoxicity was also measured in VERO E6 cells. […] Cytotoxicity (CC50) was assessed using a commercially available MTT assay.

[6] = system: Huh7.5 cells; assay: Cell viability assay CellTiter-Glo, Huh7.5 cells (Example 7)
[7] = system: SARS-CoV-2; assay: SARS-CoV-2 infection assay in Calu-3 cells, nucleocapsid immunofluorescence (Example 6); conditions: MOI 0.01, 44 hour
[8] = system: Hep-2 cells; assay: Cell viability assay for the RSV table (CC50); format: cell-based
[9] = system: SARS-CoV-2 isolate USA-WA1/2020; assay: SARS-CoV-2 infection in Calu-3 cells, qRT-PCR (Example 7); format: cell-based
[10] = system: SARS-CoV-2; assay: SARS-CoV-2 infection assay in TMPRSS2-Vero cells, nucleocapsid immunofluorescence (Example 6); format: cell-based; conditions: MOI 0.01, 32 hours
[11] = system: TMPRSS2-Vero cells; assay: Cytotoxicity in TMPRSS2-Vero cells, nuclei count (Example 6); format: cell-based
[12] = system: MRC-5 cells
[13] = system: Human Coronavirus 229E; assay: Human Coronavirus 229E infected MRC-5 cells, CPE by MTT (Example 8); format: cell-based; conditions: 229E in MRC-5 cells, 72 hours
[14] = system: VERO E6 cells; assay: Cell viability assay CellTiter-Glo, Vero E6 cells (Example 7)
[15] = system: SARS-CoV-2 isolate USA-WA1/2020; assay: SARS-CoV-2 infection in Caco-2 cells, qRT-PCR (Example 7); format: cell-based
[16] = system: VERO E6 cells; assay: Cellular cytotoxicity in Vero E6 cells, MTT assay (Example 2); format: cell-based
Description: as §1

[17] = system: SARS-CoV-2 isolate USA-WA1/2020; assay: SARS-CoV-2 infection in PSC-human lung cells, qRT-PCR (Example 7); format: cell-based
[18] = Vero E6 cells, MOI 0.1, 48 hours
[19] = Caco-2 cells, MOI 0.01, 48 hours

Structure (SMILES): CCCCCCCCCCCCCCCCCCOC[C@H](COP(=O)(O)OC[C@H]1O[C@@](C#N)(c2ccc3c(N)ncnn23)[C@H](O)[C@@H]1O)OCc1ccccc1 [Compound 15d, 1-O-octadecyl-2-O-benzyl-sn-glyceryl-phospho-RVn]
- Selectivity ([1]; CC50/EC50, Huh7.5 cells): 449
- EC90 ([1]; Huh7.5 cells, MOI 0.01, 48 hours, qRT-PCR (Example 7)): 0.15 µM
- EC50 ([1]; Huh7.5 cells, MOI 0.01, 48 hours, qRT-PCR (Example 7), listed as ODBG-P-RVn): 0.14 µM
- CC50 [2]: > 20 µM
- EC50 [3]: 0.138 µM
- EC90 [3]: 0.377 µM
- CC50 [4]: 98.2 µM
- Selectivity Index ([5]; CC50/EC50, Vero E6): >238
- EC50 [5, 18]: 0.21 µM
- EC90 [5, 18]: 0.56 µM
- CC50 [6]: 62.9 µM
- EC50 [7]: 0.164 ± 0.02 µM
- EC90 [7]: 0.536 ± 0.138 µM
- CC50 [8]: 14.7 µM
- Selectivity ([9]; CC50/EC50, Calu-3 cells): 327
- EC90 ([9]; Calu-3 cells, MOI 0.01, 48 hours): 0.33 µM
- EC50 ([9]; Calu-3 cells, MOI 0.01, 48 hours, listed as ODBG-P-RVn): 0.3 µM
- EC50 [10]: 0.205 µM
- EC90 [10]: 0.432 µM
- CC50 [11]: > 20 µM
- CC50 [12]: 43.1 ± 18.9 µM
- EC50 [13]: 0.15 µM
- CC50 [14]: 97.9 µM
- Selectivity ([15]; CC50/EC50, Caco-2 cells): 295
- EC50 [15, 19]: 0.3 µM
- EC90 [15, 19]: 0.33 µM
- CC50 [16]: > 50 µM
- Selectivity ([17]; CC50/EC50, PSC-human lung cells): 410
- EC90 ([17]; PSC-human lung cells, MOI 0.01, 48 hours): 0.26 µM
